Reference: US20250101436A1, “APTAMERS AND SMALL MOLECULE LIGANDS” (MeiraGTx UK II Limited, priority 2021, published 2025)

Test system: N5-12G6 riboswitch
Experiment: Firefly luciferase assay, N5-12G6 riboswitch in HEK293 cells
Conditions: Homo sapiens, HEK293, read-out: Fold induction 2 μM (HEK), 12G6 riboswitch, luciferase, HEK293, 2 μM
Method: Transfection: 3.5×10^4 human embryonic kidney (HEK) 293 cells were plated in a 96-well flat bottom plate the day before transfection. Plasmid DNA (500 ng) was added to a tube or a 96-well U-bottom plate. Separately, TransIT-293 reagent (Mirus; 1.4 L) was added to 50 μL Optimum I media (Life Technologies) and allowed to sit for 5 minutes at room temperature (RT). Then, 50 μL of this diluted transfection reagent was added to the DNA, mixed, and incubated at RT for 20 min. Finally, 7 μL of this solution was added to a well of cells in the 96-well plate. Four hours after transfection, medium containing transfection solution was replaced by medium with either TPP or fursultiamine as aptamer ligands.
Firefly luciferase assay of cultured cells: Twenty-four hours after media change, plates were removed from the incubator, and equilibrated to RT for several minutes on a lab bench, then aspirated. Glo-lysis buffer (Promega, 100 μL, RT) was added, and the plates allowed to remain at RT for at least 5 minutes. Then, the well contents were mixed by 50 μL trituration, and 20 μL of each sample was mixed with 20 μL of bright-glo reagent (Promega) that had been diluted to 10% in glo-lysis buffer. 96 wells were spaced on an opaque white 384-well plate. Following a 5 min incubation at RT, luminescence was measured using a Tecan machine with 500 ms read time. The luciferase activity was expressed as mean arbitrary light units (ALU)±S.D., and fold induction was calculated as the quotient of the luciferase activity obtained from cells with TPP or analog compound treatment divided by the luciferase activity obtained from cells without TPP or analog compound treatment.

Compound	fold induction at 2 µM
Fc1cncc(NCc2ccc3nccnc3c2)c1O[C@@H]1CCNC1 [compound 109, (R)-5-fluoro-4-(pyrrolidin-3-yloxy)-N-(quinoxalin-6-ylmethyl)pyridin-3-amine]	54.6
Clc1cc2nccnc2cc1CNc1cnccc1N1C[C@@H]2C[C@H]1CN2 [compound 097, 4-((1S,4S)-2,5-diazabicyclo[2.2.1]heptan-2-yl)-N-((7-chloroquinoxalin-6-yl)methyl)pyridin-3-amine]	2.6
Cc1cncc(NCc2ccc3nccnc3c2)c1N1CCNCC1 [compound 023, 5-Methyl-4-(piperazin-1-yl)-N-(quinoxalin-6-ylmethyl)pyridin-3-amine]	67.4
C[C@@H]1CNCCN1c1ccncc1NCc1cc(Cl)c2nccnc2c1 [compound 066, (R)—N-((8-chloroquinoxalin-6-yl)methyl)-4-(2-methylpiperazin-1-yl)pyridin-3-amine]	2
Clc1cc(CNc2cnccc2N2CCNCC2)cc2nccnc12 [compound 049, N-((8-chloroquinoxalin-6-yl)methyl)-4-(piperazin-1-yl)pyridin-3-amine]	5.7
C[C@@H]1CNCCN1c1ccncc1NCc1ccc2nccnc2c1 [compound 020, (R)-4-(2-Methylpiperazin-1-yl)-N-(quinoxalin-6-ylmethyl)pyridin-3-amine]	31.2
Clc1cncc(NCc2ccc3nccnc3c2)c1OC1CNC1 [compound 027, 4-(Azetidin-3-yloxy)-5-chloro-N-(quinoxalin-6-ylmethyl)pyridin-3-amine]	49.4
CN(C)CCOc1ccncc1NCc1ccc2nccnc2c1 [compound 047, 4-(2-(dimethylamino)ethoxy)-N-(quinoxalin-6-ylmethyl)pyridin-3-amine]	2.7
Clc1cc2nccnc2cc1CNc1cnccc1N1CCCNCC1 [compound 091, N-((7-chloroquinoxalin-6-yl)methyl)-4-(1,4-diazepan-1-yl)pyridin-3-amine]	28.4
Fc1cc(CNc2cnccc2N2CCCNCC2)cc2nccnc12 [compound 088, 4-(1,4-diazepan-1-yl)-N-((8-fluoroquinoxalin-6-yl)methyl)pyridin-3-amine]	2.6
c1ccc2c(N3CCNCC3)c(NCc3ccc4nccnc4c3)cnc2c1 [compound 115, 4-(piperazin-1-yl)-N-(quinoxalin-6-ylmethyl)quinolin-3-amine]	79
Cc1cncc(NCc2ccc3nccnc3c2)c1OC1CNC1 [compound 113, 4-(azetidin-3-yloxy)-5-methyl-N-(quinoxalin-6-ylmethyl)pyridin-3-amine]	31.9
Fc1cncc(NCc2ccc3nccnc3c2)c1N1CCCNCC1 [compound 092, 4-(1,4-diazepan-1-yl)-5-fluoro-N-(quinoxalin-6-ylmethyl)pyridin-3-amine]	34.9
c1cc(OC2CCNCC2)c(NCc2ccc3nccnc3c2)cn1 [compound 045, 4-(piperidin-4-yloxy)-N-(quinoxalin-6-ylmethyl)pyridin-3-amine]	12
Clc1cc2nccnc2cc1CNc1cnccc1OC1CNC1 [compound 029, 4-(Azetidin-3-yloxy)-N-((7-chloroquinoxalin-6-yl)methyl)pyridin-3-amine]	41.3
Cc1cc(CNc2cnccc2N2CCNCC2)cc2nccnc12 [compound 068, N-((8-methylquinoxalin-6-yl)methyl)-4-(piperazin-1-yl)pyridin-3-amine]	4.4
C[C@H]1CN(c2c(F)cncc2NCc2ccc3nccnc3c2)CCN1 [compound 103, (S)-5-fluoro-4-(3-methylpiperazin-1-yl)-N-(quinoxalin-6-ylmethyl)pyridin-3-amine]	23.3
Cc1c(CNc2cnccc2N2CCNCC2)cc2nccnc2c1C [compound 070, N-((7,8-dimethylquinoxalin-6-yl)methyl)-4-(piperazin-1-yl)pyridin-3-amine]	2.9
Fc1c(CNc2cncc(Cl)c2N2CCNCC2)ccc2nccnc12 [compound 078, 5-chloro-N-((5-fluoroquinoxalin-6-yl)methyl)-4-(piperazin-1-yl)pyridin-3-amine]	6.1
c1cc(N2CC3(CNC3)C2)c(NCc2ccc3nccnc3c2)cn1 [compound 046, N-(quinoxalin-6-ylmethyl)-4-(2,6-diazaspiro[3.3]heptan-2-yl)pyridin-3-amine]	1.6
C[C@@H]1CN(c2c(Cl)cncc2NCc2ccc3nccnc3c2)CCN1 [compound 056, (R)-5-chloro-4-(3-methylpiperazin-1-yl)-N-(quinoxalin-6-ylmethyl)pyridin-3-amine]	12.9
Fc1cc(CNc2cncc(Cl)c2O[C@@H]2CCNC2)cc2nccnc12 [compound 119, (R)-5-chloro-N-((8-fluoroquinoxalin-6-yl)methyl)-4-(pyrrolidin-3-yloxy)pyridin-3-amine]	32.5
Fc1cncc(NCc2cc(F)c3nccnc3c2)c1N1CCNCC1 [compound 080, 5-fluoro-N-((8-fluoroquinoxalin-6-yl)methyl)-4-(piperazin-1-yl)pyridin-3-amine]	31.2
Clc1cc(CNc2cnccc2O[C@@H]2CCNC2)cc2nccnc12 [compound 106, (R)—N-((8-chloroquinoxalin-6-yl)methyl)-4-(pyrrolidin-3-yloxy)pyridin-3-amine]	22.2
Fc1cc2nccnc2cc1CNc1cncc(Cl)c1N1CCNCC1 [compound 052, 5-chloro-N-((7-fluoroquinoxalin-6-yl)methyl)-4-(piperazin-1-yl)pyridin-3-amine]	18.9
C[C@H]1CNCCN1c1c(Cl)cncc1NCc1ccc2nccnc2c1 [compound 061, (S)-5-chloro-4-(2-methylpiperazin-1-yl)-N-(quinoxalin-6-ylmethyl)pyridin-3-amine]	6
c1cc(OC2CNC2)c(NCc2ccc3nccnc3c2)cn1 [compound 022, 4-(Azetidin-3-yloxy)-N-(quinoxalin-6-ylmethyl)pyridin-3-amine]	43.2
COc1cc(N2CCNCC2)c(NCc2ccc3nccnc3c2)cn1 [compound 116, 6-methoxy-4-(piperazin-1-yl)-N-(quinoxalin-6-ylmethyl)pyridin-3-amine]	50

Same assay, conditions: Homo sapiens, HEK293, read-out: Fold induction 3.3 μM (HEK), 12G6 riboswitch, luciferase, HEK293, 3.3 μM

Compound	fold induction at 3.3 µM
C[C@@H]1CNCCN1c1ccncc1NCc1ccc2nccnc2c1 [compound 020, (R)-4-(2-Methylpiperazin-1-yl)-N-(quinoxalin-6-ylmethyl)pyridin-3-amine]	52
c1cc(O[C@H]2CCNC2)c(NCc2ccc3nccnc3c2)cn1 [compound 044, (S)-4-(pyrrolidin-3-yloxy)-N-(quinoxalin-6-ylmethyl)pyridin-3-amine]	22
C[C@H]1CNCCN1c1ccncc1NCc1ccc2nccnc2c1 [compound 041, (S)-4-(2-methylpiperazin-1-yl)-N-(quinoxalin-6-ylmethyl)pyridin-3-amine]	5

Same assay, conditions: Homo sapiens, HEK293, read-out: Fold induction 25 μM (HEK), 12G6 riboswitch, luciferase, HEK293, 25 μM

Compound	fold induction at 25 µM
c1cc(N2CC3CNCC3C2)c(NCc2ccc3nccnc3c2)cn1 (stereo not shown) [compound 032, 4-(hexahydropyrrolo[3,4-c]pyrrol-2(1H)-yl)-N-(quinoxalin-6-ylmethyl)pyridin-3-amine]	69.4
CN(c1ccncc1NCc1ccc2nccnc2c1)C1CCNC1 (stereo not shown) [compound 035, N^4-methyl-N^4-(pyrrolidin-3-yl)-N^3-(quinoxalin-6-ylmethyl)pyridine-3,4-diamine]	86.4
c1cc(NC2CCNCC2)c(NCc2ccc3nccnc3c2)cn1 [compound 034, N^4-(piperidin-4-yl)-N^3-(quinoxalin-6-ylmethyl)pyridine-3,4-diamine]	53.2
c1cc(N2CCOCC2)c(NCc2ccc3nccnc3c2)cn1 [compound 039, 4-morpholino-N-(quinoxalin-6-ylmethyl)pyridin-3-amine]	6

Test system: luciferase gene expression in HEK 293 cells in response to Comp. 004
Experiment: Screen of riboswitch constructs with 12C6-1 variant aptamers (libraries N1-N5) against Comp. 004, luciferase in HEK 293 cells
Format: cell-based, human
Conditions: library N1 (J2-4), HEK 293, 25 M [sic] Comp. 004
Procedure, shortened: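 Riboswitch constructs carrying 12C6-1 aptamer variants, randomized in J2-4, J2-3/J3-3a/J3a-2/P3, L3a, J4-5/J5-4/P4 or L5 regions (libraries N1-N5), cloned into an intron-exon-intron cassette driving luciferase. Screened in HEK 293 cells with 25 µM Comp. 004; read-out is fold induction of gene expression versus parent Luci-12C6-1.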

Compound	Fold (induction of luciferase gene expression)
N1_2E7 (CTGGGGAGTCCTTCATGCGGGGC; chemistry not given here)	19.91 fold

Same assay, conditions: library N2 variant aptamers (J2-3, P3-J3-3a, J3a-2 randomized) of 12C6-1 in riboswitch constructs; in response to Comp. 004; HEK 293 cells

Compound	Fold (induction of luciferase gene expression)
N2_2A12 (CTGGGGAGTCCTTCATGC; chemistry not given here)	1.1 fold
N2_2B9 (CTGGGGAGTCCTTCATGC; chemistry not given here)	1.1 fold
N2_2E8 (DNA CTGGGGAGTCCTTCATGC; chemistry not given here)	0.9 fold
N2_2C8 (CTGGGGAGTCCTTCATGC; chemistry not given here)	0.9 fold

Same assay, conditions: library N5 variant aptamers (L5, X16-X21 randomized) of 12C6-1 in riboswitch constructs; in response to Comp. 004 treatment; HEK 293 cells

Compound	Fold (induction of luciferase gene expression)
N5_13G5 (CTGGGGAGTCCT; chemistry not given here)	1198.5 fold
N5_6E1 (CTGGGGAGTCCT; chemistry not given here)	725.2 fold
N5_6H10 (CTGGGGAGTCCT; chemistry not given here)	1466.1 fold
N5_1E8 (CTGGGGAGTCCT; chemistry not given here)	691.8 fold
N5_2D10 (CTGGGGAGTCCT; chemistry not given here)	884.5 fold
N5_1F12 (CTGGGGAGTCCT; chemistry not given here)	1057.8 fold
